In patent EP1953147A1, “HETEROCYCLIC COMPOUND AND MEDICINAL APPLICATION THEREOF” (priority 2005, dated 2007) one finds IC50 data, which are given here for 27 compounds.

The test concerns ΔG/SEAP/HCV E1E2. Kind of test: Effect of test substance on cell infection with HCV pseudotype virus (SEAP reporter assay in HepG2 cells). In kind it is cell-based. The note with it: Hepatitis C virus.
Broadly, the IC50 is the point on the concentration scale where inhibition reaches its midpoint. Lower therefore signals greater potency in that assay. `CCCCCC(=O)NCCNC(=O)CN1CCc2c(-c3cc(OC)cc(OC)c3)nn(-c3cc(N4CC[C@H](O)C4)ccc3C(F)(F)F)c(=O)c21` [Example 46, hexanoic acid [2-(2-{4-(3,5-dimethoxy-phenyl)-6-[5-((S)-3-hydroxy-pyrrolidin-1-yl)-2-trifluoromethylphenyl]-7-oxo-2,3,6,7-tetrahydro-pyrrolo[2,3-d]pyridazin-1-yl}-acetylamino)-ethyl]-amide] displayed an IC50 of less than 100 nM. `COc1cc(OC)cc(-c2nn(-c3cc(NCCCNC(=O)OC(C)(C)C)ccc3C(F)(F)F)c(=O)c3c2CCC3)c1` [Example 129, (3-{3-[4-(3,5-dimethoxy-phenyl)-1-oxo-1,5,6,7-tetrahydro-cyclopenta[d]pyridazin-2-yl]-4-trifluoromethyl-phenylamino}-propyl)-carbamic acid tert-butyl ester] displayed an IC50 of less than 100 nM. The compound `COc1cc(OC)cc(-c2nn(-c3cc(N4CC[C@@H](O)C4)ccc3C(F)(F)F)c(=O)c3c2CCN3)c1` [Example 24, 4-(3,5-dimethoxy-phenyl)-6-[5-((R)-3-hydroxy-pyrrolidin-1-yl)-2-trifluoromethyl-phenyl]-1,2,3,6-tetrahydro-pyrrolo[2,3-d]pyridazin-7-one] displayed an IC50 of less than 100 nM. As for `COc1cc(OC)cc(-c2nn(-c3cc(N4CC[C@H](O)C4)ccc3N(C)C)c(=O)c3c2CCC3)c1` [Example 1-6, 4-(3,5-dimethoxy-phenyl)-2-[2-dimethylamino-5-((S)-3-hydroxy-pyrrolidin-1-yl)-phenyl]-2,5,6,7-tetrahydro-cyclopenta[d]pyridazin-1-one], the IC50 was 100 to 10000 nM. Under `O=c1c2c(c(-c3ccccn3)nn1-c1cc(N3CC[C@H](O)C3)ccc1C(F)(F)F)CCC2` [Example 110, 2-[5-((S)-3-hydroxy-pyrrolidin-1-yl)-2-trifluoromethyl-phenyl]-4-pyridin-2-yl-2,5,6,7-tetrahydro-cyclopenta[d]pyridazin-1-one] stands 100 to 10000 nM; under `COc1cc(OC)cc(-c2nn(-c3cc(N)ccc3C(F)(F)F)c(=O)c3c2CCN3CCO)c1` [Example 1-41, 6-(5-amino-2-trifluoromethyl-phenyl)-4-(3,5-dimethoxy-phenyl)-1-(2-hydroxy-ethyl)-1,2,3,6-tetrahydro-pyrrolo[2,3-d]pyridazin-7-one], less than 100 nM.

On to `COc1cc(OC)cc(-c2nn(-c3cc(NCCCC(=O)O)ccc3C(F)(F)F)c(=O)c3c2CCC3)c1` [Example 151, 4-{3-[4-(3,5-dimethoxy-phenyl)-1-oxo-1,5,6,7-tetrahydro-cyclopenta[d]pyridazin-2-yl]-4-trifluoromethyl-phenylamino}-butyric acid], for which the IC50 was less than 100 nM.

Regarding `CNC(=O)CN1CCc2c(-c3cc(OC)cc(OC)c3)nn(-c3cc(N4CC[C@H](O)C4)ccc3C(F)(F)F)c(=O)c21` [Example 31, 2-{4-(3,5-dimethoxy-phenyl)-6-[5-((S)-3-hydroxy-pyrrolidin-1-yl)-2-trifluoromethyl-phenyl]-7-oxo-2,3,6,7-tetrahydro-pyrrolo[2,3-d]pyridazin-1-yl}-N-methyl-acetamide], the IC50 is less than 100 nM.

Regarding `COc1cc(OC)cc(-c2nn(-c3cc(N4CC[C@H](O)C4)ccc3C(F)(F)F)c(=O)c3c2CCN3CCO)c1` [Example 29, 4-(3,5-dimethoxy-phenyl)-1-(2-hydroxy-ethyl)-6-[5-((S)-3-hydroxy-pyrrolidin-1-yl)-2-trifluoromethylphenyl]-1,2,3,6-tetrahydro-pyrrolo[2,3-d]pyridazin-7-one], the IC50 was less than 100 nM. Regarding `O=c1c2c(c(-c3cccnc3)nn1-c1cc(N3CC[C@H](O)C3)ccc1C(F)(F)F)CCC2` [Example 103, 2-[5-((S)-3-hydroxy-pyrrolidin-1-yl)-2-trifluoromethyl-phenyl]-4-pyridin-3-yl-2,5,6,7-tetrahydro-cyclopenta[d]pyridazin-1-one], the IC50 lay in the range of 100 to 10000 nM. Next, `COc1cc(C)cc(-c2nn(-c3cc(-c4cccnn4)ccc3C(F)(F)F)c(=O)c3c2CC(C)N3)c1` (stereo not drawn) [Example 15, 4-(3-methoxy-5-methyl-phenyl)-2-methyl-6-(5-pyridazin-3-yl-2-trifluoromethyl-phenyl)-1,2,3,6-tetrahydro-pyrrolo[2,3-d]pyridazin-7-one]: less than 100 nM. Next, `COc1cc(OC)cc(-c2nn(-c3cc(N4CC[C@H](O)C4)ccc3C(F)(F)F)c(=O)c3c2CCN3CC(=O)NCCCCCCNC(C)=O)c1` [Example 40, N-(6-acetylamino-hexyl)-2-{4-(3,5-dimethoxy-phenyl)-6-[5-((S)-3-hydroxy-pyrrolidin-1-yl)-2-trifluoromethyl-phenyl]-7-oxo-2,3,6,7-tetrahydro-pyrrolo[2,3-d]pyridazin-1-yl}-acetamide]: less than 100 nM; `COc1cc(OC)cc(-c2nn(-c3cc(N4CC[C@@H](O)C4)ccc3C(F)(F)F)c(=O)c3c2CCN3C(=O)OC(C)(C)C)c1` [Example 59, 4-(3,5-dimethoxy-phenyl)-6-[5-((R)-3-hydroxy-pyrrolidin-1-yl)-2-trifluoromethyl-phenyl]-7-oxo-2,3,6,7-tetrahydro-pyrrolo[2,3-d]pyridazine-1-carboxylic acid tert-butyl ester]: less than 100 nM; `COc1cc(OC)cc(-c2nn(-c3cc(N4CC[C@@H](O)C4)ccc3C(F)(F)F)c(=O)c3c2CCC3)c1` [Example 21, 4-(3,5-dimethoxy-phenyl)-2-[5-((R)-3-hydroxy-pyrrolidin-1-yl)-2-trifluoromethyl-phenyl]-2,5,6,7-tetrahydro-cyclopenta[d]pyridazin-1-one]: less than 100 nM. Next, `COc1cc(O)cc(-c2nn(-c3cc(N4CC(CO)C4)ccc3C(F)(F)F)c(=O)c3c2CCN3CCO)c1` [Example 1-44, 1-(2-hydroxy-ethyl)-4-(3-hydroxy-5-methoxyphenyl)-6-[5-(3-hydroxymethyl-azetidin-1-yl)-2-trifluoromethyl-phenyl]-1,2,3,6-tetrahydro-pyrrolo[2,3-d]pyridazin-7-one]: less than 100 nM; `COc1cc(OC)cc(-c2nn(-c3cc(N(C)CCO)ccc3C(F)(F)F)c(=O)c3c2CCC3)c1` [Example 92, 4-(3,5-dimethoxy-phenyl)-2-{5-[(2-hydroxy-ethyl)-methyl-amino]-2-trifluoromethyl-phenyl}-2,5,6,7-tetrahydro-cyclopenta[d]pyridazin-1-one]: less than 100 nM; `COc1ccccc1-c1nn(-c2cc(N3CC[C@H](O)C3)ccc2C(F)(F)F)c(=O)c2c1CCC2` [Example 109, 2-[5-((S)-3-hydroxy-pyrrolidin-1-yl)-2-trifluoromethyl-phenyl]-4-(2-methoxy-phenyl)-2,5,6,7-tetrahydro-cyclopenta[d]pyridazin-1-one]: 100 to 10000 nM.

In turn, `COc1cc(-c2nn(-c3cc(N4CC[C@H](O)C4)ccc3C(F)(F)F)c(=O)c3c2CCC3)ccn1` [Example 93, 2-[5-((S)-3-hydroxy-pyrrolidin-1-yl)-2-trifluoromethyl-phenyl]-4-(2-methoxy-pyridin-4-yl)-2,5,6,7-tetrahydro-cyclopenta[d]pyridazin-1-one] displayed an IC50 of 100 to 10000 nM. With `O=C(O)c1cccc(-c2nn(-c3cc(N4CC[C@H](O)C4)ccc3C(F)(F)F)c(=O)c3c2CCC3)c1` [Example 79, 3-{3-[5-((S)-3-hydroxy-pyrrolidin-1-yl)-2-trifluoromethyl-phenyl]-4-oxo-4,5,6,7-tetrahydro-3H-cyclopenta[d]pyridazin-1-yl}-benzoic acid], the IC50 was 100 to 10000 nM.

Take `COc1cc(OC)cc(-c2nn(-c3cc(N4CCCC4)ccc3C(F)(F)F)c(=O)c3c2CCN3)c1` [Example 37, 4-(3,5-dimethoxy-phenyl)-6-(5-pyrrolidin-1-yl-2-trifluoromethyl-phenyl)-1,2,3,6-tetrahydro-pyrrolo[2,3-d]pyridazin-7-one]: the IC50 was less than 100 nM.

On to `CC(C)Cc1nn(-c2cc(N3CC[C@H](O)C3)ccc2C(F)(F)F)c(=O)c2c1CCC2` [Example 144, 2-[5-((S)-3-hydroxy-pyrrolidin-1-yl)-2-trifluoromethyl-phenyl]-4-isobutyl-2,5,6,7-tetrahydro-cyclopenta[d]pyridazin-1-one], for which the IC50 was 100 to 10000 nM. Under `COc1cc(OC)cc(-c2nn(-c3cc(Cl)ccc3C(F)(F)F)c(=O)c3c2CCN3)c1` [Example 51, 6-(5-chloro-2-trifluoromethyl-phenyl)-4-(3,5-dimethoxy-phenyl)-1,2,3,6-tetrahydro-pyrrolo[2,3-d]pyridazin-7-one] stands 100 to 10000 nM; under `Cc1cc(-c2cnco2)cc(-c2nn(-c3cc(N4CC[C@H](O)C4)ccc3C(F)(F)F)c(=O)c3c2CCCN3)c1` [Example 1-38, 7-[5-((S)-3-hydroxy-pyrrolidin-1-yl)-2-trifluoromethylphenyl]-5-[3-methyl-5-(oxazol-5-yl)-phenyl]-1,3,4,7-tetrahydro-2H-pyrido[2,3-d]pyridazin-8-one], less than 100 nM; under `Cc1cc(C)cc(-c2nn(-c3cc(N4CC[C@H](O)C4)ccc3C(F)(F)F)c(=O)c3c2CCC3)c1` [Example 4, 4-(3,5-dimethyl-phenyl)-2-[5-((S)-3-hydroxy-pyrrolidin-1-yl)-2-trifluoromethyl-phenyl]-2,5,6,7-tetrahydro-cyclopenta[d]pyridazin-1-one], less than 100 nM. Next, `COc1cc(OC)cc(-c2nn(-c3cc(N4CC[C@H](O)C4)ccc3C(F)(F)F)c(=O)c3c2CCN3C(=O)OC(C)C)c1` [Example 155, 4-(3,5-dimethoxy-phenyl)-6-[5-((S)-3-hydroxy-pyrrolidin-1-yl)-2-trifluoromethyl-phenyl]-7-oxo-2,3,6,7-tetrahydro-pyrrolo[2,3-d]pyridazine-1-carboxylic acid isopropyl ester]: less than 100 nM; `CCC(=O)Nc1ccc(C(F)(F)F)c(-n2nc(-c3cc(OC)cc(OC)c3)c3c(c2=O)CCC3)c1` [Example 57, N-{3-[4-(3,5-dimethoxy-phenyl)-1-oxo-1,5,6,7-tetrahydro-cyclopenta[d]pyridazin-2-yl]-4-trifluoromethyl-phenyl}-propionamide]: less than 100 nM.

Consider `COc1cc(OC)cc(-c2nn(-c3cc(C(=O)O)ccc3C(F)(F)F)c(=O)c3c2CCC3)c1` [Example 1-10, 3-[4-(3,5-dimethoxy-phenyl)-1-oxo-1,5,6,7-tetrahydro-cyclopenta[d]pyridazin-2-yl]-4-trifluoromethyl-benzoic acid], for which the IC50 is 100 to 10000 nM.
